Consider one compound from ChEMBL document CHEMBL4364246, “Synthesis and biological evaluation of 5-aminoethyl benzophenanthridone derivatives as DNA topoisomerase IB inhibitors” (Eur J Med Chem, 2019).

One may read the inhibition in vivo as the relative decrease from the control value, in per cent. As usually defined, the LD50 is the dose expected to kill half of the subjects tested. A word on the AUC(0-t): it is the area under the concentration-time curve up to a stated or last time point. Read a high AUC(0-t) as more exposure. A word on the half-life: it is the time in which the quantity being followed falls by half. Higher therefore signals slow loss. As a reminder, the MRT inf is the average time that molecules of a dose stay in the body.

Data set [1] has as its system HCT-116. As to the kind of experiment: Induction of apoptosis in human HCT116 cells assessed as viable cells at 1 uM incubated for 24 hrs by FITC and PI staining based flow cytometric analysis (reference value: 99.27%). The data set is classed as functional. The settings on record: HCT-116, 24 h, read-out: Activity.
Data set [2] in a line: Solubility of the compound in DMSO. In kind it is physicochemical.
Data set [3] relates to HCT-116. The data set can be described thus: Antitumour activity against human HCT116 cells xenografted in athymic nude nu/nu mouse assessed as inhibition in tumor weight at 10 mg/kg administrated daily by caliper method relative to control. In kind it is functional. In general terms: Xenograft models place foreign cells or tissue in a host animal.
For data set [4], the system named is HCT-116. The data set can be described thus: Antitumour activity against human HCT116 cells xenografted in athymic nude nu/nu mouse assessed as inhibition in tumor weight at 20 mg/kg administrated daily by caliper method relative to control. The data set is classed as functional.
Data set [5] deals with MCF7. The data set can be described thus: Antitumour activity against human MCF7 cells xenografted in ip dosed athymic nude nu/nu mouse assessed as reduction in tumor volume administrated daily by caliper method. The data set is classed as functional, organism-based.
Data set [6] can be described thus: Acute toxicity in ip dosed Kunming mouse assessed as mortality administrated for 7 days. In kind it is organism-based. The conditions noted are these: in vivo, 168 h.
Data set [7] can be described thus: AUC (0 to t) in Sprague-Dawley rat at 5 mg/kg, ig measured for 0.083 to 4 hrs by LC-MS/MS analysis. In kind it is ADME, organism-based. Also on record: time upper 4 hr, dose 5 mg/kg, time lower 0.083 hr, route […]. The settings on record: in vivo, po.
Data set [8] deals with MCF7. As to the kind of experiment: Antitumour activity against human MCF7 cells xenografted in athymic nude nu/nu mouse assessed as inhibition in tumor weight at 5 mg/kg administrated daily by caliper method relative to control. In kind it is functional.
Data set [9] in a line: Oral bioavailability in Sprague-Dawley rat at 5 mg/kg measured for 0.083 to 4 hrs by LC-MS/MS analysis. The conditions noted are these: in vivo. In kind it is ADME, organism-based.
Data set [10] can be described thus: AUC (0 to t) in Sprague-Dawley rat at 1 mg/kg, iv measured for 0.083 to 4 hrs by LC-MS/MS analysis. In kind it is ADME, organism-based. Also on record: time 0.083-4 hr, dose 1 mg/kg, route intravenous. The conditions noted are these: in vivo.
For data set [11], the system named is HCT-116. The data set can be described thus: Antitumour activity against human HCT116 cells xenografted in ip dosed athymic nude nu/nu mouse assessed as reduction in tumor volume administrated daily by caliper method. The data set is classed as functional, organism-based.
For data set [12], the system named is HCT-116. As to the kind of experiment: Induction of apoptosis in human HCT116 cells assessed as viable cells at 2 uM incubated for 24 hrs by FITC and PI staining based flow cytometric analysis (reference value: 99.27%). In kind it is functional. The settings on record: HCT-116, 24 h, read-out: Activity. For orientation: A flow cytometer gives signals particle by particle.

Data set [13] deals with T1, DNA topoisomerase 1 (Homo sapiens) (UniProt P11387).
T1 sequence (whole entry): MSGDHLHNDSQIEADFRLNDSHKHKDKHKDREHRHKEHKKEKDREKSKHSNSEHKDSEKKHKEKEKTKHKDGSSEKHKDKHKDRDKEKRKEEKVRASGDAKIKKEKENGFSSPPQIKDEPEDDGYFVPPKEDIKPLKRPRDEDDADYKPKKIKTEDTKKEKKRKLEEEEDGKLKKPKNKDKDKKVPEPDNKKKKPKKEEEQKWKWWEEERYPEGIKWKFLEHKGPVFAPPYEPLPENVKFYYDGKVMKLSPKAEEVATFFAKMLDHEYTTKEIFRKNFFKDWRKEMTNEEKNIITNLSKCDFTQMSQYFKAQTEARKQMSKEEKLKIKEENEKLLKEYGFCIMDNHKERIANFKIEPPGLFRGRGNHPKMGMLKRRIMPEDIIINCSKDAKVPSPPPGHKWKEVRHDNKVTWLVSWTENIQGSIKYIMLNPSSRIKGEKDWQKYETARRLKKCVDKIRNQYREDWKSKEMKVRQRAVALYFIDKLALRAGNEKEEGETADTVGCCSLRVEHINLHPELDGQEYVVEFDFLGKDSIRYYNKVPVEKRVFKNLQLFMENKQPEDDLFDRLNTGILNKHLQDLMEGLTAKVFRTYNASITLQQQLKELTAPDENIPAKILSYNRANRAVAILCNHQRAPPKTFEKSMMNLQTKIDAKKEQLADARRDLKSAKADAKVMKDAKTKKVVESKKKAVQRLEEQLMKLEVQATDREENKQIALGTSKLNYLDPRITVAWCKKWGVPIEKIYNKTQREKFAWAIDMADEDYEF
As to the kind of experiment: Inhibition of TOP1 in human HCT116 cells assessed as induction of DNA damage by measuring increase in gammaH2AX foci at 1 uM incubated for 3 hrs by DAPI staining based immunofluorescence microscopic method. The data set is classed as cell-based.

A short description of data set [14]: Half life in Sprague-Dawley rat at 1 mg/kg, iv measured for 0.083 to 4 hrs by LC-MS/MS analysis. In kind it is ADME, organism-based. The conditions noted are these: in vivo.
For data set [15], the system named is MCF7. The data set can be described thus: Antitumour activity against human MCF7 cells xenografted in athymic nude nu/nu mouse assessed as inhibition in tumor weight at 20 mg/kg administrated daily by caliper method relative to control. In kind it is functional.
The subject of data set [16] is HCT-116. As to the kind of experiment: Induction of apoptosis in human HCT116 cells assessed as viable cells at 0.5 uM incubated for 24 hrs by FITC and PI staining based flow cytometric analysis (reference value: 99.27%). The settings on record: HCT-116, 24 h, read-out: Activity. In kind it is functional.
Data set [17] in a line: MRT (0 to infinity) in Sprague-Dawley rat at 1 mg/kg, iv measured for 0.083 to 4 hrs by LC-MS/MS analysis. The conditions noted are these: in vivo.
Data set [18] deals with T1, DNA topoisomerase 1 (Homo sapiens). The data set can be described thus: Inhibition of TOP1 in human HCT116 cells assessed as induction of cellular TOP1cc formation at 25 uM incubated for 1 hr by chemiluminescence based assay. The data set is classed as cell-based.
Data set [19] has the same target. As to the kind of experiment: Inhibition of TOP1 in human HCT116 cells assessed as induction of cellular TOP1cc formation incubated for 1 hr by chemiluminescence based assay. In kind it is cell-based.
Data set [20] in a line: Acute toxicity in Kunming mouse assessed as animal survival at 122.9 mg/kg, ip administrated as single dose measured for 7 days post administration. In kind it is organism-based. The conditions noted are these: in vivo.

Active and inactive are the calls of the source. No cut-off for these calls is given here.

For `CNCCn1c(=O)c2cc(OC)c(OC)cc2c2ccc3cc4c(cc3c21)OCO4`, the viability at 1 µM in the data set with HCT-116 [1] turned out to be 88.1%. In addition, in data set [2], the solubility result was “Soluble”. Further, the inhibition in vivo at 10 mg/kg in the data set on HCT-116 [3] was 64.5%. For the same compound, the inhibition in vivo at 20 mg/kg turned out to be 76.9% in the data set on HCT-116 [4] and 71.8% with MCF7 [15]. For the same compound, the inhibition entry with MCF7 [5] and in the data set on HCT-116 [11] was “Dose-dependent effect” each time. The LD50 in [6] is 192 mg/kg. In addition, in [7], the AUCt was determined as 48.3 ng·h/mL. For the same compound, in the data set on MCF7 [8], the inhibition in vivo at 5 mg/kg was found to be 44%. Also, the F in [9] worked out at 20.4%. For the same compound, the AUC(0-t) in data set [10] turned out to be 47.2 ng·h/mL. Further, the viability at 2 µM in the data set with HCT-116 [12] came out at 69.4%. The result in data set [13] and in [18] was Active. In data set [14], this compound had a half-life of 1.21 h. Further, in the data set with HCT-116 [16], the viability at 0.5 µM is 93.3%. Besides, the MRT inf in [17] stood at 1.46 h. The Activity entry in data set [19] was “Dose-dependent effect”. For the same compound, the survival at 168 h in data set [20] came out at 100%.
